Assay results: patent US4032659A (priority 1975, dated 1977)
Like-named read-outs stand apart in the source and are kept apart here.

Experiments:
Herpes virus [1] = assay type: in vivo, mouse; settings: oral
Herpes virus [2] = assay: Herpes virus in eggs (chick embryo survival); assay type: in vivo, chicken eggs; settings: all doses
[3] = test system: Influenza B Massachusetts virus; assay: Chemoprophylaxis of Influenza B Massachusetts virus infection in mice; assay type: in vivo, mouse; settings: oral
Description: The activity of four compounds on Influenza B Mass. was tested in mice.
A portion of a commercially available sample of amantadine was recrystallized from isopropanol. The activity of the material against Influenza B Mass. was tested for the sample as obtained, the recrystallized portion, and the mother liquor obtained from recrystallizing the portion.

[4] = test system: Influenza Ann Arbor virus; assay: Chemoprophylaxis of Influenza Ann Arbor (A1) virus infection in mice; assay type: in vivo, mouse
Influenza PR 8 virus = assay: Chemoprophylaxis of Influenza PR 8 virus infection in mice; assay type: in vivo, mouse; settings: oral
virus infections = assay: Antiviral screening program, several viruses; settings: mouse, in vivo
[5] = subcutaneous, total dose 500 μg
[6] = subcutaneous, total dose .00005 μg
[7] = subcutaneous, total dose .0005 μg
[8] = subcutaneous, total dose .005 μg
[9] = subcutaneous, total dose .05 μg

## NNC(=S)NC12CC3CC(CC(C3)C1)C2
Herpes virus [1]; total dose 4pg
  No. animals surviving when 18/20 of controls are dead: 1
  Survivors: 1
Herpes virus [1]; total dose 40pg
  No. animals surviving when 18/20 of controls are dead: 1
  Survivors: 1
Herpes virus [1]; total dose 400pg
  No. animals surviving when 18/20 of controls are dead: 3
  Survivors: 3
Herpes virus [1]; total dose 4ng
  No. animals surviving when 18/20 of controls are dead: 2
  Survivors: 2
Herpes virus [1]; total dose 40ng
  No. animals surviving when 18/20 of controls are dead: 2
  Survivors: 2
Herpes virus [1]; total dose 400ng
  No. animals surviving when 18/20 of controls are dead: 3
  Survivors: 3

## NN [hydrazine]
Herpes virus [2]
  No. Living Longer Than Controls, total: 3
Herpes virus [1]; total dose 5 μg
  No. animals surviving after 7 days: 7
Herpes virus [1]; total dose .0005 μg
  No. animals surviving after 7 days: 5
  No. animals surviving when 19/20 controls are dead: 5
Herpes virus [1]; total dose .005 μg
  No. animals surviving after 7 days: 6
  No. animals surviving when 19/20 controls are dead: 3
Herpes virus [1]; total dose .05 μg
  No. animals surviving after 7 days: 5
Herpes virus [1]; total dose .5 μg
  No. animals surviving after 7 days: 6
  No. animals surviving when 19/20 controls are dead: 1

## NN.O=S(=O)(O)O [Hydrazine Sulfate, hydrazine sulfate]
Herpes virus [1]; total dose 5 μg
  Survivors: 2
Herpes virus [1]; total dose .0005 μg
  Survivors: 3
Herpes virus [1]; total dose .005 μg
  Survivors: 4
Herpes virus [1]; total dose .05 μg
  Survivors: 0
Herpes virus [1]; total dose .5 μg
  Survivors: 1

## N=C(N)NN [aminoguanidine, bicarbonate]
[3]; total dose 40pg
  Survivors: 0
[3]; total dose 4ng
  Survivors: 0
[3]; total dose 40ng
  Survivors: 1
[3]; total dose 400ng
  Survivors: 1
[3]; total dose 4μg
  Survivors: 1

## NC(=S)NN=C1CCCCC1 [Cyclohexanone, thiosemicarbazone]
[3]; total dose 5pg
  No. animals surviving after 11 days: 7
  No. animals surviving when 16/20 of controls are dead: 5
  Survivors: 5
[3]; total dose 50pg
  No. animals surviving after 11 days: 4
  No. animals surviving when 16/20 of controls are dead: 3
  Survivors: 2
[3]; total dose 500pg
  No. animals surviving after 11 days: 2
  No. animals surviving when 16/20 of controls are dead: 2
  Survivors: 2
[3]; total dose 5ng
  No. animals surviving after 11 days: 3
  No. animals surviving when 16/20 of controls are dead: 2
  Survivors: 2
[3]; total dose 50ng
  No. animals surviving after 11 days: 7
  No. animals surviving when 16/20 of controls are dead: 7
  Survivors: 5
[3]; total dose 500ng
  No. animals surviving after 11 days: 2
  No. animals surviving when 16/20 of controls are dead: 1
  Survivors: 1

## NC(N)=NN=Cc1c(Cl)cccc1Cl [[(2,6-dichlorobenzylidine)amino]guanidine acetate]
[4]; oral, total dose 30 pg
  No. animals surviving after 6 days: 4
  Survivors: 0
[4]; oral, total dose 300 pg
  No. animals surviving after 6 days: 2
  Survivors: 1
[4]; oral, total dose 3 ng
  No. animals surviving after 6 days: 4
  Survivors: 0
[4]; oral, total dose 30 ng
  No. animals surviving after 6 days: 1
  Survivors: 0
[4]; oral, total dose 300 ng
  No. animals surviving after 6 days: 1
  Survivors: 0
[4]; oral, total dose 3 μg
  No. animals surviving after 6 days: 2
  Survivors: 0
[4]; oral, total dose 30 μg
  No. animals surviving after 6 days: 3
  Survivors: 0
[4]; oral, total dose 300 μg
  No. animals surviving after 6 days: 1
  Survivors: 0
[4]; oral, total dose 3 mg
  Toxicity: Toxic

## NN [hydrazine, hydrate]
Influenza PR 8 virus; total dose 5 μg
  No. animals surviving after 10 days: 1
  Survivors: 0
Influenza PR 8 virus; total dose 50 μg
  No. animals surviving after 10 days: 1
  Survivors: 0
Influenza PR 8 virus; total dose .000005 μg
  No. animals surviving after 7 days: 4
Influenza PR 8 virus; total dose .00005 μg
  No. animals surviving after 7 days: 0
  No. animals surviving when 18/20 of controls are dead: 4
Influenza PR 8 virus; total dose .0005 μg
  No. animals surviving after 10 days: 1
  No. animals surviving when 18/20 of controls are dead: 3
Influenza PR 8 virus; total dose .0005 μg, hydrate
  Survivors: 1
Influenza PR 8 virus; total dose .005 μg
  No. animals surviving after 7 days: 5
  No. animals surviving after 10 days: 3
  No. animals surviving when 18/20 of controls are dead: 1
Influenza PR 8 virus; total dose .05 μg
  No. animals surviving after 10 days: 0
  No. animals surviving when 18/20 of controls are dead: 1
Influenza PR 8 virus; total dose .5 μg
  No. animals surviving after 10 days: 1
  No. animals surviving when 18/20 of controls are dead: 1
  Survivors: 1
[4]; oral, total dose 5 μg
  No. animals surviving after 5 days: 4
  Survivors: 0
[4]; oral, total dose 50 μg
  No. animals surviving after 5 days: 4
  Survivors: 0
[4]; oral, total dose 500 μg
  No. animals surviving after 5 days: 5
  Survivors: 0
[4]; oral, total dose .00005 μg
  No. animals surviving after 5 days: 6
  Survivors: 0
[4]; oral, total dose .0005 μg
  No. animals surviving after 5 days: 6
  Survivors: 0
[4]; oral, total dose .005 μg
  No. animals surviving after 5 days: 3
  Survivors: 0
[4]; oral, total dose .05 μg
  No. animals surviving after 5 days: 3
  Survivors: 1
[4]; oral, total dose .5 μg
  No. animals surviving after 5 days: 6
  Survivors: 0
[4]; subcutaneous, total dose 5 μg
  No. animals surviving after 5 days: 6
  No. animals surviving after 7 days: 6
[4]; subcutaneous, total dose 5 μg, hydrate
  Survivors: 3
[4]; subcutaneous, total dose 50 μg
  No. animals surviving after 5 days: 4
  No. animals surviving after 7 days: 7
[4]; [5]
  No. animals surviving after 5 days: 3
  No. animals surviving after 7 days: 6
  Survivors: 0
[4]; [6]
  No. animals surviving after 5 days: 1
  No. animals surviving after 7 days: 1
  Survivors: 0
[4]; [7]
  No. animals surviving after 5 days: 7
  No. animals surviving after 7 days: 5
[4]; [8]
  No. animals surviving after 5 days: 4
  No. animals surviving after 7 days: 3
[4]; [9]
  No. animals surviving after 5 days: 6
  No. animals surviving after 7 days: 4
[4]; subcutaneous, total dose .5 μg
  No. animals surviving after 5 days: 5
  No. animals surviving after 7 days: 7
Virus infections
  activity (in words): active on Influenza PR 8, Vaccinia in the mouse tail, Herpes in eggs, Herpes in mice, and Influenza Ann Arbor
